The values that follow come from patent US20090203773A1, “Compounds for the Treatment of Non-Autoimmune Type 2 Diabetes Mellitus and/or Syndrome X” (priority 2005, published 2009).

For assay [1], the system named is C3H10T1/2 cells. In words: Glucose uptake of adipocytes (radioactive 2-deoxyglucose, basal, without insulin). The assay is classed as cell-based. As to conditions: 48-h treatment; for Basal glucose uptake (% of control ± SEM): absence of insulin, DMSO control = 100%; for Basal glucose uptake, result in words: different concentrations. As to the method: C3H10T1/2 cells (ATCC CCL-226) were grown for 5 days to confluence in DMEM supplemented with 10% FBS medium and induced with a mixture of insulin, dexamethasone and 3-isobutyl-1-methylxanthine to differentiate into adipocytes. Nine days after the beginning of induction, cells were treated for 48-h with the compound of the formula I-13 at different concentrations as shown in Table 1. Glucose uptake was determined using radioactive 2-deoxyglucose (10 μM 2-DG in HBS+0.5 μCi/ml of 3[H]-2-DG), measuring glucose uptake in the absence of insulin. Basal glucose uptake was increased by 48-h treatment with the compound of the formula I-13 in a dose-dependent manner (Table 1). Growing, induction and treatment of C3H10T1/2 cells were exactly as described in Example 1, with the exception that the compound of the formula I-15 at different concentrations was used instead of the compound of the formula I-13. […] Control: C3H10T1/2 cells treated for 48 h with DMSO at the same concentration as compound-treated cells and set at 100%

Assay [2] concerns C3H10T1/2 cells. In words: Differentiation of adipocytes (oil Red O staining). In kind it is cell-based. As to conditions: for Adipocyte differentiation, oil Red O, Mean OD ± SEM: 10-day treatment, absorbance at 540 nm; for Differentiation of the cells into adipocytes, result in words: co-treatment with insulin, compared with insulin alone. As to the method: C3H10T1/2 cells were grown to confluence as described in Example 1, then treated for 10 days with insulin alone (negative control) or with a mixture of insulin and the compound of the formula I-13 at different concentrations (see Table 2), with re-feeding with fresh medium and compounds every 48-h. After 10-days of treatment, the cells were stained with oil Red O as follows: cells were washed 2× in PBS and fixed in 10% formalin at room temperature for 1 h. After removal of formalin, 200 μl of oil Red O staining solution (3:2 mixture of 0.5% w/v oil Red O stock solution and water) was applied to each well. The cells were incubated for 20 min at room temperature, washed twice in 2×PBS and incubated for 10 min with 300 μl of isopropanol/well for oil Red O extraction. Quantification of oil Red O was determined by measuring absorbance at 540 nm (mean OD). […] C3H10T1/2 cells were grown and treated as described in Example 4 with the exception that the compound of the formula I-14 was used instead of the compound of the formula I-13. The measurement of adipocyte differentiation using the oil Red O assay was performed as described in Example 4. […] C3H10T1/2 cells were grown and treated as described in Example 4 with the exception that the compound of the formula I-15 was used instead of the compound of the formula I-13. The measurement of adipocyte differentiation using the oil Red O assay was performed as described in Example 4.

The test system of assay [3] is C57BLKS/J db/db mice. In words: Glucose tolerance / blood glucose in a 14-day db/db mouse study (OGTT). In kind it is in vivo. The method, then: The efficacy of the compound of the formula I-13 on glucose tolerance was tested in a 14-day study in C57BLKS/J db/db mice (n=10/group), a model of late type 2 diabetes mellitus with severe hyperglycemia.
Male db/db mice were obtained from Jackson Laboratory (Bar Harbor, Me., USA). Adult mice aged 8 weeks were used in the experiment. Mice were housed individually in plastic cages with bedding and allowed free access to standard rodent food and tap water. The animal rooms were controlled for temperature (24° C.), humidity (55%), and light (12-h light-dark cycle). The animals were randomized in two groups and the compound of the formula I-13 was administered orally to one of the groups for 14 days at a dose of 200 mg/kg BW/day. After 14 days of treatment the concentration of glucose was determined in blood from fed animals, i.e., animals which were not restricted from food. After a period of 10 days of treatment an oral glucose tolerance test (OGTT) was performed. For the OGTT mice were fasted overnight and then a 1-g glucose/kg BW solution was orally administered. Blood samples were taken before and 15, 30, 45, 60, 90, 120, 150, 180 min after the glucose challenge for determination of blood glucose levels and then the area under the curve (AUC) was determined. Blood glucose was measured by a glucose analyzer (Glucotrend Premium, Roche Diagnostics, Rotkreuz, Switzerland). The glucose and the free fatty acid (FFA) levels of fed animals (see above) were lowered after 14 days of treatment with the compound of the formula I-13. After 10 days of treatment with the compound of the formula I-13 the glucose levels of fasted animals, i.e., animals with an overnight fasting (see above) were decreased as compared to the untreated control group.

[4] abbreviates: Insulin 1 × 10^−7 M + compound 1 × 10^−5 M.
The mark [5] stands for this setting: 200 mg/kg BW/day orally, after 14 days, fed animals.

As to `COc1ccc(C(=O)/C=C/c2c(CCN(C)C(C)=O)cc3c(c2OC)OCO3)cc1` [I-13], the “Basal glucose uptake (% of control ± SEM)” value in assay [1] (1 × 10^−5 M) is on record as 94.58 ± 0.95 % of control; in assay [1] (1 × 10^−6 M), 97.6 ± 22.9 % of control; in assay [1] (2.4 × 10^−5 M), 128.6 ± 0.89 % of control; in assay [1] (5 × 10^−4 M), 194.058 ± 0.05 % of control. The “Basal glucose uptake, result in words” value in assay [1] was “increased”. Besides, the “Adipocyte differentiation, oil Red O, Mean OD ± SEM” value in assay [2] (setting [4]) was 0.69 ± 0.019. Further, the “Differentiation of the cells into adipocytes, result in words” value (“Differentiation … in words” below) in assay [2] was “higher differentiation”. Moreover, the “Glucose AUC” value in assay [3] (200 mg/kg BW/day orally, OGTT (1 g glucose/kg BW) on day 10, 0-180 min) turned out to be 54295. Besides, the “Blood Glucose Fasted” value in assay [3] (200 mg/kg BW/day orally, after 10 days, overnight fasting) came out at 135 mg/dL. The “Blood Glucose Fed” value in assay [3] (setting [5]) amounted to 771 mg/dL. For the same molecule, the FFA in assay [3] (setting [5]) was found to be 12.38 mg/dL. In assay [3] (200 mg/kg BW/day, OGTT 1 g glucose/kg body weight on day 10), the “Glucose AUC of an OGTT, result in words” value is listed as “significantly reduced”. Further, the “Glucose levels of fasted animals, result in words” value in assay [3] (200 mg/kg BW/day, after 10 days, compared to untreated control group) is recorded as “decreased”. The “Glucose and free fatty acid (FFA) levels of fed animals, result in words” value in assay [3] (200 mg/kg BW/day, after 14 days) was “lowered”. In addition, the “Blood glucose levels during the OGTT, result in words” value in assay [3] (200 mg/kg BW/day, day 10, compared with control group) is listed as “lower at all time points”.
Consider `COc1ccc(C(=O)C=Cc2cccc(OC(=O)C=Cc3ccccc3)c2)cc1` [I-14], for which the “Adipocyte differentiation, oil Red O, Mean OD ± SEM” value in assay [2] (setting [4]) turned out to be 0.45 ± 0.037. The “Differentiation … in words” value in assay [2] is listed as “higher differentiation”.
On to `COc1ccc(/C=C/C(=O)c2ccc(OC(=O)c3ccccc3)cc2)cc1OC` [I-15], for which the “Basal glucose uptake (% of control ± SEM)” value is on record as 133.28 ± 23.4 % of control in assay [1] (1 × 10^−5 M), 105.37 ± 2.21 % of control in assay [1] (1 × 10^−6 M), 142.84 ± 18.05 % of control in assay [1] (2 × 10^−4 M) and 116.17 ± 15.96 % of control in assay [1] (5 × 10^−5 M). Also, the “Basal glucose uptake, result in words” value in assay [1] is recorded as “increase”. Moreover, the “Adipocyte differentiation, oil Red O, Mean OD ± SEM” value in assay [2] (setting [4]) is 0.53 ± 0.025; in assay [2] (Insulin 1 × 10^−7 M + compound 2 × 10^−4 M) it was 0.34 ± 0.087; in assay [2] (Insulin 1 × 10^−7 M + compound 5 × 10^−5 M), 0.53 ± 0.017. For the same molecule, the “Differentiation … in words” value in assay [2] was “higher differentiation”.
In the case of Insulin, the “Adipocyte differentiation, oil Red O, Mean OD ± SEM” value in assay [2] (Insulin 1 × 10^−7 M alone (negative control)) worked out at 0.28 ± 0.03.
Take `CC1(COc2ccc(CC3SC(=O)NC3=O)cc2)CCCCC1` (stereo not shown) [Ciglitazone, reference compound]: the “Basal glucose uptake (% of control ± SEM)” value in assay [1] (5 × 10^−5 M) is listed as 496.178 ± 61.86 % of control.
